Source: patent publication US20230135127A1, “COMPOSITIONS AND METHODS FOR DISEASE TREATMENT AND PREVENTION BY PH MODIFIERS AND/OR CELL PROLIFERATION INHIBITORS” (priority 2021, published 2023)
Where a name gives a salt, the structure may show the parent alone. Read-outs that look alike come from different tables or passages of the source.

What was measured:
Jurkat cells = test system: Jurkat cells
Experimental: Jurkat and Raji tumor cell lines were maintained in Complete RPMI-1640 Medium (RPMI-1640 plus 1× GlutaMAX, 100 U/ml Pen-Strep (Gibco Life Technologies, Grand Island, N.Y., USA), and 5% heat-inactivated fetal bovine serum (FBS) (Atlanta Biologicals, Flowery Branch, Ga., USA)) at 37° C. and 5% CO2. The tumor cells were washed 3 times with saline plus 1% FBS before in vitro treatments with saline or saline plus pH modifiers.
(§1) For studies of the effects of pH modifier on proliferating cells, primary thymocytes or lymph node cells (4×10^6 cells/ml) were incubated in FBS comprising 10% of saline or 87.5 mM HCl, HOAc or NaOH prepared in saline in 37° C. water bath for 5 hours before analyses. The tumor cells (2×10^6 cells/ml) were incubated in FBS comprising 10% saline or 87.5 mM HCl, HOAc, or NaOH prepared in saline in 37° C. water bath for 3-5 hours.
Cells were washed 3 times with PBS then stained with Zombie viability dyes at room temperature for 20 minutes. At the end of incubation, 10% volume of FBS was added to absorb excess Zombie dyes. After washes, the cells were stained with conjugated antibodies against surface antigens on ice. As specified in some experiments, the cells were subsequently stained with fluorochrome-conjugated Avidin. For Annexin V staining, cells were washed twice with plain PBS and once with Annexin V binging buffer (10 mM HEPES, pH7.4, 140 mM NaCl, 2.5 mM CaCl2)) after surface antigen staining, and incubated with fluorochrome-conjugated Annexin V in Annexin V binding buffer for 15 min at room temperature. The cells were washed twice in Annexin V binding buffer and resuspended in Annexin V binding buffer. 7-AAD was added to the cells before analyzed by flow cytometry. […] Stained and unstained cells were analyzed on Accuri C6 Flow Cytomer (Accuri Cytometers, Inc., Ann Arbor, Mich.), FACS Canto (BD Bioscience, San Jose, Calif., USA) and Attune™ cytometer (Invitrogen, Carlsbad, Calif.). […]

thymocytes = test: Asthma model: thymus and thymocyte populations in vivo; set-up: species or system mice; details: for size of the thymus vs saline (gross examination): 3 days after final challenge and treatment; for percentage of Ki-67hi total thymocytes: saline 22.7%; for percentage of DP (CD4+CD8+) thymocyte subpopulation: saline 69.7%
Experimental: (§2) Cells were washed 3 times with PBS then stained with Zombie viability dyes at room temperature for 20 minutes. At the end of incubation, 10% volume of FBS was added to absorb excess Zombie dyes. After washes, the cells were stained with conjugated antibodies against surface antigens on ice. As specified in some experiments, the cells were subsequently stained with fluorochrome-conjugated Avidin. For Annexin V staining, cells were washed twice with plain PBS and once with Annexin V binging buffer (10 mM HEPES, pH7.4, 140 mM NaCl, 2.5 mM CaCl2)) after surface antigen staining, and incubated with fluorochrome-conjugated Annexin V in Annexin V binding buffer for 15 min at room temperature. The cells were washed twice in Annexin V binding buffer and resuspended in Annexin V binding buffer. 7-AAD was added to the cells before analyzed by flow cytometry. For Ki-67 and Foxp3 staining, lymphocytes (after Zombie dye and surface antigen staining) or tumor cells (without surface antigen staining) were fixed and permeabilized using Foxp3 staining buffer kit, then stained with PE-conjugated anti-mouse or human Ki-67 antibodies. (Biolegend, San Diego, Calif., USA). Stained and unstained cells were analyzed on Accuri C6 Flow Cytomer (Accuri Cytometers, Inc., Ann Arbor, Mich.), FACS Canto (BD Bioscience, San Jose, Calif., USA) and Attune™ cytometer (Invitrogen, Carlsbad, Calif.). Data analyses were carried out using FlowJo X.
In the asthma model, OVA sensitized mice were challenged with OVA by i.t. injection every other day for 3 times. The mice received i.t. treatment with saline, HCl or HOAc at the same time as challenge, or i.p. treatment with NaOH 1 hour after the challenge. Thymuses were harvested 3 days after the final challenge and treatment. […] (FIG. 20a). […] The thymocytes can be divided into Ki-67 high, low and negative populations. (FIG. 20b).

[1] = test system: mucus secretion in the lungs; test: Asthma model: PAS staining of lung tissue; details: i.t. HOAc or HCl; i.p. NaOH
[2] = test system: mediastinal lymph node (MLN) cells; details: for percentage of Lym2 lymphocytes in MLN: saline 2.26%; for percentage of Ki-67hi B cells in Lym1: saline 3.91%; for percentage of Lym1 lymphocytes in MLN: saline 73.7%; for percentage of Ki-67hi Lym1 B cells: saline 4.29%; for percentage of Ki-67hi Lym2 B cells: saline 35.2%; for CD8 T cells within Lym1: saline 13.9%
Experimental: For the analyses of the effects of pH modifiers on lymphocyte populations and their proliferation in vivo in Example 3, the mice were sensitized, challenged with OVA and received either i.t. or i.p. treatments. The same challenge and treatment solutions as in the asthma model were used. In the first set of experiments, the mice were challenged with 60 μl of 1×OVA challenge solution without pH modifiers by i.t. injection for 2 consecutive days. One day of the second challenge, the mice received one-time i.t. treatment with saline or saline plus HCl or HOAc. The mice were sacrificed the next day by CO2 inhalation to collect lymphoid tissues. In the second set of experiments, the mice were challenged with OVA and treated with i.t. instillation of saline or saline plus HCl or HOAc or treated with i.p. injection of saline plus NaOH for a total of 3 doses as in the asthma model. On day 3 after the final challenge and treatment, mice were sacrificed by CO2 inhalation to collect lymphoid tissues.
as §2
The DLNs are the primary location where active immune responses to local antigen exposure take place. The DLNs of the lungs are the mediastinal lymph nodes (MLNs). Two sets of experiments using the OVA sensitization and challenge models were carried out to investigate whether pH modifiers can affect lymphocyte populations and proliferation. In the first set of experiments, MLNs were collected from the mice 3 days after the first OVA challenge and 1 day after a single treatment. In the second set of experiments, MLNs were collected 7 days after the initial challenge and 3 days after the third treatments.

primary lymph node cells = test: In vitro treatment of primary lymph node cells in FBS, Ki-67; format: cell-based, mouse; details: 8.75 mM in FBS, 37° C., 5 hours
Experimental: as §1, §2
Thus, to assess the full potentials of the pH modifiers, in vitro experiments were carried out, in which primary lymph node cells were treated with saline or saline plus the pH modifiers in 100% FBS in 37° C. water bath. Such in vitro culture systems were designed to be free of interference by pH buffering agents in common tissue culture system. The final concentration of the pH modifiers in the in vitro cultures was set to be 8.75 mM.

[3] = test system: proliferating cells in the intestinal villi; test: Ki-67 immunohistochemistry of intestines; format: in vivo, mice; details: i.p. x3, one day after third dose
Experimental: (97). Briefly, the tissue sections were first deparaffinized and rehydrated.
Mice were i.p. treated with saline or saline plus HCl, HOAc or NaOH every other day for a total of 3 doses. One day after the third dose, mice were sacrificed, and tissue sections of the intestines were analyzed by immunohistochemistry staining of Ki-67 with hematoxylin counter staining.

[4] = FBS with 10% of 87.5 mM modifier, 37° C., 3-5 hours, saline 73.4%
[5] = 1 day after single i.t. treatment
[6] = 1 day after single i.t. treatment, saline 4.5×10^7
[7] = 3 days after third treatment, saline 5.96×10^7

## Cl [HCl, hydrochloric acid]
Jurkat cells; [4]
  viability (live cells) of Jurkat cells: 22.1%
thymocytes
  size of the thymus vs saline (gross examination): dramatically smaller
[1]
  mucus secretion (PAS staining) in the lungs: only faint PAS staining
[2]; [5]
  reduction of total MLN cells vs saline: 12%
[2]; [6]
  average number of total MLN cells: 4.0×10^7
[2]; 3 days after third treatment
  reduction of total MLN cells vs saline: 5.5%
[2]; [7]
  average number of total MLN cells: 5.6×10^7
[2]; first set
  percentage of Lym2 lymphocytes in MLN: 2.83%
  percentage of Ki-67hi B cells in Lym1: 2.79%
  percentage of Lym1 lymphocytes in MLN: 68.3%
[2]; first set, saline 3.31%
  percentage of Ki-67hi Lym1 cells: 2.92%
[2]; first set, saline 9.69%
  CD8 T cells within Lym2: 8.2%
[2]; first set, saline 14.2%
  CD4 T cells within Lym2: 13.4%
[2]; first set, saline 42.5%
  B cells within Lym1: 34.4%
[2]; first set, saline 54.5%
  percentage of Ki-67hi Lym2 cells: 49.1%
[2]; first set, saline 62.6%
  B cells within Lym2: 44.8%
  percentage of Ki-67hi B cells in Lym2: 51.1%
[2]; second set
  Ki-67 mean fluorescence intensities of Ki-67hi Lym2 and Lym2 B cells vs saline: much lower
  percentage of Ki-67hi Lym1 B cells: 3.62%
  percentage of Ki-67hi Lym2 B cells: 35.5%
[2]; second set, saline 2.73%
  percentage of Ki-67hi Lym1 cells: 2.42%
[2]; second set, saline 34.9%
  percentage of Ki-67hi Lym2 cells: 34.9%
Primary lymph node cells
  Ki-67+ cells in live total lymphocytes, CD4, CD8 T cells and B cells: almost eliminated all Ki-67^+
[3]
  Ki-67+ cells in the intestinal villi (IHC): more Ki-67^+ cells in the intestinal villi of saline- or NaOH-treated mice than the HCl- or HOAc-treated mice
  Ki-67 staining intensity in intestines: stronger than those of the HCl- or HOAc-treated mice

## CC(=O)O [HOAc, acetic acid]
Jurkat cells; human, 8.75 mM
  viability (live cells) of Jurkat cells: 34.3%
thymocytes
  size of the thymus vs saline (gross examination): dramatically smaller
  percentage of Ki-67hi total thymocytes: 15.4%
  percentage of DP (CD4+CD8+) thymocyte subpopulation: 43.8%
thymocytes; i.t. HOAc
  decrease of total numbers of thymocytes vs saline: ~90%
[1]
  mucus secretion (PAS staining) in the lungs: only faint PAS staining
[2]; [5]
  reduction of total MLN cells vs saline: 84%
[2]; [6]
  average number of total MLN cells: 0.75×10^7
[2]; 3 days after third treatment
  reduction of total MLN cells vs saline: 29%
[2]; [7]
  average number of total MLN cells: 4.23×10^7
[2]; first set
  percentage of Lym2 lymphocytes in MLN: 0.35%
  percentage of Ki-67hi B cells in Lym1: 1.58%
  CD8 T cells within Lym1: 1.75%
  percentage of Lym1 lymphocytes in MLN: 32.4%
[2]; first set, saline 3.31%
  percentage of Ki-67hi Lym1 cells: 1.65%
[2]; first set, saline 9.69%
  CD8 T cells within Lym2: 2.7%
[2]; first set, saline 14.2%
  CD4 T cells within Lym2: 3.23%
[2]; first set, saline 39.6%
  CD4 T cells within Lym1: 8.17%
[2]; first set, saline 42.5%
  B cells within Lym1: 22.2%
[2]; first set, saline 54.5%
  percentage of Ki-67hi Lym2 cells: 27.2%
[2]; first set, saline 62.6%
  B cells within Lym2: 46.9%
  percentage of Ki-67hi B cells in Lym2: 37.9%
[2]; first set, saline 80.4%
  percentage of Ki-67lo cells in Lym1: 32.9%
[2]; second set
  Ki-67 mean fluorescence intensities of Ki-67hi Lym2 and Lym2 B cells vs saline: much lower
  increase of B cells within Lym1 vs saline: 60.4%
  reduction of CD4 T cells within Lym1 vs saline: 19.3%
  reduction of CD4 T cells within Lym2 vs saline: 88%
  reduction of CD8 T cells within Lym1 vs saline: 46.8%
  reduction of CD8 T cells within Lym2 vs saline: 91.7%
  percentage of Ki-67hi Lym1 B cells: 2.38%
  CD8 T cells within Lym1: 7.39%
  percentage of Ki-67hi Lym2 B cells: 24.9%
[2]; second set, saline 2.73%
  percentage of Ki-67hi Lym1 cells: 2.67%
[2]; second set, saline 4.21%
  CD8 T cells within Lym2: 0.35%
[2]; second set, saline 6.91%
  CD4 T cells within Lym2: 0.8%
[2]; second set, saline 8.10%
  percentage of Lym2 in MLN: 38.7%
[2]; second set, saline 27.3%
  B cells within Lym1: 43.8%
[2]; second set, saline 34.9%
  percentage of Ki-67hi Lym2 cells: 25.3%
[2]; second set, saline 54.9%
  CD4 T cells within Lym1: 44.3%
[2]; second set, saline 84%
  B cells within Lym2: 93%
Primary lymph node cells
  Ki-67+ cells in live total lymphocytes, CD4, CD8 T cells and B cells: almost eliminated all Ki-67^+
[3]
  Ki-67+ cells in the intestinal villi (IHC): more Ki-67^+ cells in the intestinal villi of saline- or NaOH-treated mice than the HCl- or HOAc-treated mice
  Ki-67 staining intensity in intestines: stronger than those of the HCl- or HOAc-treated mice

## [Na+].[OH-] [NaOH, sodium hydroxide]
Jurkat cells; [4]
  viability (live cells) of Jurkat cells: 70.4%
thymocytes
  size of the thymus vs saline (gross examination): similar
  percentage of Ki-67hi total thymocytes: 31.7%
  percentage of DP (CD4+CD8+) thymocyte subpopulation: 77.6%
thymocytes; i.p. NaOH
  increase of total numbers of thymocytes vs saline: about 28%
[1]
  mucus secretion (PAS staining) in the lungs: no reduction of mucus secretion or PAS staining
[2]; 3 days after third i.p. treatment
  increase of total MLN cells vs saline: 32%
[2]; [7]
  average number of total MLN cells: 7.9×10^7
[2]; second set
  Ki-67 mean fluorescence intensities of Ki-67hi Lym2 and Lym2 B cells vs saline: higher
  percentage of Ki-67hi Lym1 B cells: 4.23%
  percentage of Ki-67hi Lym2 B cells: 44.7%
[2]; second set, saline 2.73%
  percentage of Ki-67hi Lym1 cells: 3.48%
[2]; second set, saline 34.9%
  percentage of Ki-67hi Lym2 cells: 42.2%
Primary lymph node cells
  percentages of Ki-67+ cells in CD4 T cells and B cells vs saline: nearly tripled
  percentages of Ki-67+ cells in total lymphocytes and CD8 T cells vs saline: more than tripled
[3]
  Ki-67+ cells in the intestinal villi (IHC): more Ki-67^+ cells in the intestinal villi of saline- or NaOH-treated mice than the HCl- or HOAc-treated mice
  Ki-67 staining intensity in intestines: strongest
